Experimental findings from ChEMBL document CHEMBL4673237, “Annulation reaction enables the identification of an exocyclic amide tricyclic chemotype as retinoic acid Receptor-Related orphan receptor gamma (RORγ/RORc) inverse agonists” (Bioorg Med Chem Lett, 2020) are described below.

A value given as a limit tells only on which side of the number the result lay.

A short description of data set [1]: Metabolic stability in mouse liver microsomes assessed as parent compound remaining. It counts as ADME, Microsome. On the technique in general: Liver microsomes are a subcellular fraction often used to study metabolism.
Data set [2] can be described thus: Metabolic stability in human liver microsomes assessed as parent compound remaining. The format is ADME, Microsome.
The target of data set [3] is T1, Nuclear receptor subfamily 1 group I member 2 (Homo sapiens, UniProt O75469).
T1 sequence (O75469 whole entry): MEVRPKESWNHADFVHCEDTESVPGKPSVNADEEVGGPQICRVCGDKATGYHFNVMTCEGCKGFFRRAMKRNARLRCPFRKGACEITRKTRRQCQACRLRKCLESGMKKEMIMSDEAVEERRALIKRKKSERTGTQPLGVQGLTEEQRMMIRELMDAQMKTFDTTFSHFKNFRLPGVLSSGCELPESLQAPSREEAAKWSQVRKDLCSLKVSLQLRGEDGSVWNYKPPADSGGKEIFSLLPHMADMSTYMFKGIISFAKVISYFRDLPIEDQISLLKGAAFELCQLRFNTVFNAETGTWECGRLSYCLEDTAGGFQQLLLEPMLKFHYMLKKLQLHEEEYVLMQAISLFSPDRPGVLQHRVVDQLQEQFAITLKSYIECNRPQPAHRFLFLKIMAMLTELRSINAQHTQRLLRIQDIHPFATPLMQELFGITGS
In words: Inhibition of PXR (unknown origin). Particulars: dose >50 µM.

A further data set addresses T2, Cytochrome P450 2C8 (Homo sapiens, UniProt P10632).
T2 sequence (P10632 whole entry): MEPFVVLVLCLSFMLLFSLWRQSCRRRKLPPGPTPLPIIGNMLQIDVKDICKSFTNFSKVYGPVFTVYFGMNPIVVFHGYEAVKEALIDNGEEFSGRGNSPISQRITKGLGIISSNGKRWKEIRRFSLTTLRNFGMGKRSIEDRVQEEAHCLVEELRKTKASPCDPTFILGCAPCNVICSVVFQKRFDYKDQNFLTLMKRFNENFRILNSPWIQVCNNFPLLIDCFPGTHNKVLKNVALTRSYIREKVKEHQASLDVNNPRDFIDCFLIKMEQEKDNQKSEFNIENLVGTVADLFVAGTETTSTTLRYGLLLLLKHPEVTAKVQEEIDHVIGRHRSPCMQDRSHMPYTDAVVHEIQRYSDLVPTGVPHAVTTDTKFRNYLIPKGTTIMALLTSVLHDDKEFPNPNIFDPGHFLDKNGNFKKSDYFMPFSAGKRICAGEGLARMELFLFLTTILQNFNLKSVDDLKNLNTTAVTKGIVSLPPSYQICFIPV
Description: Inhibition of recombinant CYP2C8 (unknown origin). Particulars: recombinant enzyme, dose >10 µM. The format is ADME.

The nature of data set [4]: Permeability from apical side to basolateral side in human Caco-2 cells. The format is ADME, cell-based. Particulars: read-out: permeability. (In general: Caco-2 cells form a polarised layer with tight junctions and transporters.)
The target in a further data set is Cytochrome P450 2C19 (Homo sapiens, UniProt P33261). In words: Inhibition of recombinant CYP2C19 (unknown origin). The format is ADME. The note with it: recombinant enzyme, dose >10 µM.
In a further data set the target is Cytochrome P450 2D6 (Homo sapiens, UniProt P10635). Description: Inhibition of recombinant CYP2D6 (unknown origin). It counts as ADME. The note with it: recombinant enzyme, dose >10 µM.
The nature of data set [5]: Protein binding in human serum assessed as unbound fraction. The format is ADME, cell-free.
Data set [6] can be described thus: Metabolic stability in mouse liver microsomes assessed as half life.
A further data set has as its target Cytochrome P450 2C9 (Homo sapiens, UniProt P11712). In words: Inhibition of recombinant CYP2C9 (unknown origin). The note with it: recombinant enzyme, dose >10 µM. The format is ADME.
Data set [7] is described as follows: Protein binding in mouse serum assessed as unbound fraction. The format is ADME, cell-free.
Data set [8] can be described thus: Metabolic stability in human liver microsomes assessed as half life.
In a further data set the target is T3, Cytochrome P450 1A2 (Homo sapiens, UniProt P05177).
T3 sequence (P05177 whole entry): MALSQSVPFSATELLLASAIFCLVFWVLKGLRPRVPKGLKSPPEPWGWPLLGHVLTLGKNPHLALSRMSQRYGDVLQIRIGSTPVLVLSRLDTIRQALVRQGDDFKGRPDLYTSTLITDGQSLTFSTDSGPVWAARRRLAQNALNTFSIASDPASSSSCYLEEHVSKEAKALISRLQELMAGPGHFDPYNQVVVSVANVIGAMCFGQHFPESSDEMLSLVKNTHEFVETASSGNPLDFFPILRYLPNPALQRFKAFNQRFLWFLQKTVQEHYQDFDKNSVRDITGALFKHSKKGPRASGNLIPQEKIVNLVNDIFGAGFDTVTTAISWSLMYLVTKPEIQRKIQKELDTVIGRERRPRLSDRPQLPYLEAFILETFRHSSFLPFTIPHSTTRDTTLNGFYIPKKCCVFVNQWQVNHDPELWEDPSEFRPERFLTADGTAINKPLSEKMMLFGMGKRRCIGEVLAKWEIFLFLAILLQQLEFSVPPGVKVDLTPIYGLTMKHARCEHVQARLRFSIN
Description: Inhibition of recombinant CYP1A2 (unknown origin). It counts as ADME. Particulars: recombinant enzyme, dose >10 µM.

Cytochrome P450 2C19, sequence (P33261 whole entry): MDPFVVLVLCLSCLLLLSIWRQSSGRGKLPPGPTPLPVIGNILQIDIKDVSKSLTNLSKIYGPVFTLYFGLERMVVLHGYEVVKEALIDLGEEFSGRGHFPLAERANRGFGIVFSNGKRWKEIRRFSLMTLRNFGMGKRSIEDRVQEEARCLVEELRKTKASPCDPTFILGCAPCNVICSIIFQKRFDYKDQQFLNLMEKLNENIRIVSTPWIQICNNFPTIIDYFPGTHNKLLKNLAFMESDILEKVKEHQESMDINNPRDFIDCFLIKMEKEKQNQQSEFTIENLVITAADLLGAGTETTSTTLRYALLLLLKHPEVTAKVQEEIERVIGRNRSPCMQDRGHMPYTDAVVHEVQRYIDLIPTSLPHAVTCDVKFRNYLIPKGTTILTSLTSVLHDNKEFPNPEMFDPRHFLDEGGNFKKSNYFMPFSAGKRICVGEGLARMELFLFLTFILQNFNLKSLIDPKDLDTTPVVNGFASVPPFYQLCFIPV
Cytochrome P450 2C9, sequence (P11712 whole entry): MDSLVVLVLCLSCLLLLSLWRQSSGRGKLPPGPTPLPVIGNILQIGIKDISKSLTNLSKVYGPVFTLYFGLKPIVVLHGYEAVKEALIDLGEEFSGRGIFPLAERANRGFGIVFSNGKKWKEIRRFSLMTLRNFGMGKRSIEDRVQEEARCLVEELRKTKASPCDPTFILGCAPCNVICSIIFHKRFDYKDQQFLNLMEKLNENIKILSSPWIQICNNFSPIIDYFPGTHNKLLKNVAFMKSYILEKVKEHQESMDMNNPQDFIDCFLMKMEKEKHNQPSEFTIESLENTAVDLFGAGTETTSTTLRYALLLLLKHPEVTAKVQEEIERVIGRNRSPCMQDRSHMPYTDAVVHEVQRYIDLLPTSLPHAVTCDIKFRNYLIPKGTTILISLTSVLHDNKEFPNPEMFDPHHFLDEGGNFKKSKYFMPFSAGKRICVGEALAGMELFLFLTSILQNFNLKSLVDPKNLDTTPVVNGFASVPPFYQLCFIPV
Cytochrome P450 2D6, sequence (P10635 whole entry): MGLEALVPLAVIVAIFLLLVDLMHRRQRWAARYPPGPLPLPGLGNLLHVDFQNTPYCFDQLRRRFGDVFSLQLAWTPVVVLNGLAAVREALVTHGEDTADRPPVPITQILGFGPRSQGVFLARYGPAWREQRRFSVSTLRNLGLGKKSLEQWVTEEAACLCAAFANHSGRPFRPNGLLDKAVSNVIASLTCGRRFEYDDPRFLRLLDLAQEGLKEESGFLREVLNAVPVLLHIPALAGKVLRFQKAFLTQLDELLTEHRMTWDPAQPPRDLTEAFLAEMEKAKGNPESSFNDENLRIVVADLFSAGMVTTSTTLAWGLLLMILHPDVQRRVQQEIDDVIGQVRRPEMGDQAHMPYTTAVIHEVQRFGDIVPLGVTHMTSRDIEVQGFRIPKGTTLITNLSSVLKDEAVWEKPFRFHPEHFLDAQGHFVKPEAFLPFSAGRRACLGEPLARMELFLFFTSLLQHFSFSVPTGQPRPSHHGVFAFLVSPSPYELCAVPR

For the compound `O=C(NCC1(O)CCCCC1)[C@@H]1CC[C@@]2(S(=O)(=O)c3ccc(F)cc3)c3ccc(C(F)(C(F)(F)F)C(F)(F)F)cc3CC[C@@H]12`, the values for the Stabilty in data set [1] and in data set [2] were 38% and 5%, respectively.

Consider `C[C@H](CO)NC(=O)[C@@H]1CC[C@@]2(S(=O)(=O)c3ccc(F)cc3)c3ccc(C(F)(C(F)(F)F)C(F)(F)F)cc3CC[C@@H]12`, for which the Stabilty in [1] turned out to be 39%; in data set [2], 46%.

On to `O=C(NCC1(O)CCCC1)[C@@H]1CC[C@@]2(S(=O)(=O)c3ccc(F)cc3)c3ccc(C(F)(C(F)(F)F)C(F)(F)F)cc3CC[C@@H]12`, for which the Stabilty is 41% in data set [1] and 22% in [2].

Consider `CC(C)(O)CNC(=O)[C@@H]1CC[C@@]2(S(=O)(=O)c3ccc(F)cc3)c3ccc(C(F)(C(F)(F)F)C(F)(F)F)cc3CC[C@@H]12`, for which the INH in data set [3] was greater than 50 µM; on Cytochrome P450 2C8, greater than 10 µM; on Cytochrome P450 2C19 it was greater than 10 µM; at Cytochrome P450 2D6 it was greater than 10 µM; at Cytochrome P450 2C9, greater than 10 µM; at Cytochrome P450 1A2, greater than 10 µM. Besides, the Papp A→B in data set [4] came to 15 ×10⁻⁶ cm/s. Besides, the Stabilty in data set [1] turned out to be 77%; in data set [2] it was 99%. The values for the Fu in data set [5] and in [7] were 0.5% and 0.4%, respectively. In addition, the half-life – broadly, the time in which the quantity being followed falls by half – in data set [6] was found to be 0.683 h; in [8] it was 1.35 h.

Consider `C[C@H](O)CNC(=O)[C@@H]1CC[C@@]2(S(=O)(=O)c3ccc(F)cc3)c3ccc(C(F)(C(F)(F)F)C(F)(F)F)cc3CC[C@@H]12`, for which the Stabilty in data set [1] was found to be 41%; in data set [2] it was 34%.

Take `C[C@@H](CO)NC(=O)[C@@H]1CC[C@@]2(S(=O)(=O)c3ccc(F)cc3)c3ccc(C(F)(C(F)(F)F)C(F)(F)F)cc3CC[C@@H]12`: the Stabilty in [1] is 55%; in data set [2] it was 53%.

For the compound `O=C(NCC1(O)CCC1)[C@@H]1CC[C@@]2(S(=O)(=O)c3ccc(F)cc3)c3ccc(C(F)(C(F)(F)F)C(F)(F)F)cc3CC[C@@H]12`, the Stabilty in data set [1] amounted to 57%; in [2] it was 74%.

For `O=C(NC[C@H](O)C(F)(F)F)[C@@H]1CC[C@@]2(S(=O)(=O)c3ccc(F)cc3)c3ccc(C(F)(C(F)(F)F)C(F)(F)F)cc3CC[C@@H]12`, the Stabilty in data set [1] and in [2] was 100% in each case.

As to `C[C@@H](O)CNC(=O)[C@@H]1CC[C@@]2(S(=O)(=O)c3ccc(F)cc3)c3ccc(C(F)(C(F)(F)F)C(F)(F)F)cc3CC[C@@H]12`, the Stabilty in data set [1] was found to be 51%; in [2] it was 56%.

In the case of `CC(C)(O)C(C)(C)NC(=O)[C@@H]1CC[C@@]2(S(=O)(=O)c3ccc(F)cc3)c3ccc(C(F)(C(F)(F)F)C(F)(F)F)cc3CC[C@@H]12`, the Stabilty in [1] came to 14%; in [2], 75%.

Consider `O=C(NCC1(O)CC1)[C@@H]1CC[C@@]2(S(=O)(=O)c3ccc(F)cc3)c3ccc(C(F)(C(F)(F)F)C(F)(F)F)cc3CC[C@@H]12`, for which the Stabilty in [1] was found to be 26%; in data set [2], 19%.

As for `O=C(NCCO)[C@@H]1CC[C@@]2(S(=O)(=O)c3ccc(F)cc3)c3ccc(C(F)(C(F)(F)F)C(F)(F)F)cc3CC[C@@H]12`, the Stabilty in [1] amounted to 78%; in data set [2], 86%.
